The results in this text go back to a melting point compilation (Tetko et al.; mined from patent text by program, amines drawn as free bases though some values may be those of a salt).

The term melting point denotes the temperature of the solid-liquid transition.

In turn, `Cc1cc(C(O)(CNC(=O)c2ccc(Cl)cc2)C(F)(F)F)ccc1NC(=O)OC(C)(C)C` (stereo unspecified) came in with a melting point of 160 to 162 °C. The molecule `COc1ccc(-c2nc3cc(F)ccc3s2)cc1OC(=O)c1cccc([N+](=O)[O-])c1` registered a melting point of 212 °C. `COc1cc(CN2N=C(c3ccc(OC)c(OC)c3)[C@@H]3CCCC[C@@H]3C2=O)cc(OC)c1` (relative stereo): the melting point was in the range of 114 to 117 °C.

`CC(C)C[C@H](NC(=O)c1ccc2c(c1)Nc1ccccc1S2)C(=O)N[C@@H](CC(C)C)C(=O)N[C@@H](CC(C)C)C(=O)N[C@H]1CCOC1O` (stereo partly specified) displayed a melting point of 174 to 176 °C.

With `CC(C)(C)c1nnc(-c2nn(-c3ccc(F)cc3F)c3c2C2CCC3C2)s1` (stereo unspecified), the melting point lay within 109 to 111 °C. `CCOC(=O)c1c(Cl)c(-c2ncc(Cl)cc2F)nn1C` gave a melting point of 77 to 79 °C.

Take `OCC1c2ccccc2-c2c1c1ccccc1c1ccccc21` (stereo unspecified): the melting point lay within 143 to 145 °C. Regarding `CCCCc1nn(-c2ccc(C(F)(F)F)cn2)cc1CCCOc1ccccc1CC(=O)O`, the melting point was 106 to 107 °C. With `CCCCCCCCCCCCCCCCC(Br)CO` (stereo unspecified) the figure was 39 to 39.5 °C; with `NS(=O)(=O)C1Cc2ccccc2CC1=O` (stereo unspecified), 145 to 146 °C. Regarding `COC(Cc1ccc(OCCc2nc(C(C)(C)C)oc2C)c2ccsc12)C(=O)O` (stereo unspecified), the melting point is 163 to 165 °C.

For the molecule `COC(=O)C(Cc1cccc(C2(OC)CCOCC2)c1)c1nc(-c2ccccc2)c(-c2ccc(S(N)(=O)=O)cc2)o1` (stereo unspecified), the melting point lay in the range of 88.7 to 94.9 °C. For `N#CCN1CCc2ccc3c(c21)CCO3` the value was 122 to 124 °C; for `NC(=O)CCCON1CCNC1=Nc1c(Cl)cccc1Cl`, 140 to 141 °C. `N#Cc1ccc(-c2ccc3nncn3n2)cc1` registered a melting point of 272 to 274 °C. Molecule `COc1ccc(N=C=O)cc1` showed a melting point of 83 to 84 °C.

`CNC(=O)CCCC1CCN(Cc2cnc3c(C)c(NC(=O)c4ccc(-c5ccc(F)cc5)cc4)ccc3c2)CC1`: the melting point lay within 210 to 212 °C. With `CCOC(=O)NN(C)c1ccc(-c2ccc(F)cc2)nn1`, the melting point was in the range of 160 to 161 °C. As to `CCOP(=O)(CCCCCCCOc1nc(-c2ccccc2)c(-c2ccccc2)n1-c1ccccc1)OCC`, the melting point is 76 to 77 °C.

As to `COc1ccc(C(=O)Nc2cccc(Cl)c2)cc1NC(=S)Nc1ccc(F)cc1`, the melting point is 184 to 185 °C. In turn, `CCn1cc(C=O)c(OCc2ccc(OCc3nc(-c4ccco4)oc3C)c(OC)c2)n1` had a melting point of 103 to 104 °C. As for `O=C(O)c1ccc(C(=O)/C=C/c2ccc(-c3cncnc3)cc2)cc1`, the melting point was above 260 °C. The molecule `O=S1(=O)CCN(c2ccc(O)cc2)CC1` showed a melting point of 153 to 155 °C. `CCOC(=O)Cc1nsc2ccc(-n3c(=O)cc(C(F)(F)F)n(C)c3=O)cc12`: the melting point was 150 to 152 °C.

As to `O=C(O)[C@H](CC1CC1)N1C(=O)NC(C(F)(F)F)(C(F)(F)F)C1=O`, the melting point lay within 123 to 125 °C.

With `CC(C)Sc1cc(O)c(N)c(C#N)c1`, the melting point is 145 to 146 °C. In turn, `Cc1c(N2CC(O)C2)c(F)cc2c(=O)c(C(=O)O)cn(C3CC3)c12` came in with a melting point of 260 to 262 °C. Take `COc1cccc(CCC(=O)O)c1OCCCc1cn(-c2ccc(C(F)(F)F)cn2)nc1C(C)C`: the melting point lay within 112 to 113 °C. Consider `CCn1c(-c2cccnc2)nc(-c2ccncc2)c1-c1ccc(Cl)cc1`, for which the melting point lay in the range of 248 to 250 °C. Molecule `CC1Cc2ccc(Br)cc2C(c2ccc([N+](=O)[O-])cc2)=NN1C(=O)C(F)(F)F` (stereo unspecified) yielded a melting point of 193 to 196 °C. For `CSc1nc(Cl)c(C#N)c(N2CCc3ccccc3CC2)n1`, the melting point fell in the range of 144 to 150 °C.

`C[Si](C)(ON(Cc1ccccc1)Cc1ccccc1)ON(Cc1ccccc1)Cc1ccccc1` came in with a melting point of 50 to 53 °C. For `NC(=NOCC1CC1)c1c(C(F)(F)F)ccc(C(F)(F)F)c1Cl`, the melting point is 75 to 80 °C. Consider `O=C(CCc1ccccc1)CS(=O)(=O)C(c1ccc(Cl)cc1)c1ccc(Cl)cc1`, for which the melting point fell in the range of 106 to 107 °C. Take `O=C1CCn2c(-c3cccs3)nc3c(Cl)ccc1c32`: the melting point is 252 to 254 °C. `CN(C)/C=c1\c2ccccc2c2[nH]c(=O)c3nccn3c12` had a melting point of 293 °C.

In turn, `COC(CNC1=Nc2ccc(Cl)cc2C(c2ccccc2)N1C)OC` (stereo unspecified) showed a melting point of 104 to 105 °C. `CCOC(=O)c1cc(-n2c(=O)[nH]c(C)c(C)c2=O)ccc1Cl` returned a melting point of 202 to 204 °C. `CCOC(=O)C(C)Oc1cc(F)ccc1[N+](=O)[O-]` (stereo unspecified) had a melting point of 64 to 65 °C. With `COc1ccc(C2(C#N)C3CC4CC(C3)CC2C4)cc1` (stereo unspecified) the figure was 165 to 166 °C; with `CC1(C)Cc2ccc(F)cc2C=[N+]1[O-]`, 88 to 90 °C; with `CCCN(CCC)CCCC1CCN(CCNC(=O)N2c3cc(Cl)ccc3C(=O)Nc3cccnc32)CC1`, 174 to 175 °C. With `Cc1c2sc3ccccc3nc-2c2c(O)cccc2c1=O`, the melting point was 226 to 228 °C. `NS(=O)(=O)c1ccc(F)cc1` came in with a melting point of 123 to 125 °C.

Consider `O=[N+]([O-])c1ccc(Oc2c(Cl)cc(C(F)(F)F)cc2Cl)cc1S(=O)(=O)c1cc[nH]n1`, for which the melting point is 159 °C. The molecule `CN(C)C(=O)COc1ccc2c(c1)C[C@@H](NC[C@H](O)c1ccc(O)c(CO)c1)CC2` had a melting point of 175 to 176 °C. Take `Cc1cccc(NC(=O)NC2C(=O)N(CC34CC5CC(CC(C5)C3)C4)c3ccccc3N(c3ccccc3)C2=O)c1` (stereo unspecified): the melting point is 244 to 246 °C.

In turn, `COc1cc(CBr)cc2c(Br)ccc(OC(C)C)c12` came in with a melting point of 126 °C. In turn, `C#CCOc1noc2ccc(N3C(=O)C4=C(CCCC4)C3=O)cc12` displayed a melting point of 147 to 148 °C.

For `COc1ccccc1NC(=NC#N)NC(NC(=O)c1ccc(Cl)cc1)C(C)(Cl)Cl` (stereo unspecified), the melting point lay in the range of 185 to 186 °C. Consider `Cc1cc(NC(=O)c2cccc(CSc3ncnc4[nH]ncc34)c2)ccc1C(C)C`, for which the melting point lay within 187 to 189 °C.

In the case of `O=c1c2cccc(O)c2nc(-c2ccc(OCCCl)cc2)n1-c1ccc(O)cc1`, the melting point was 188 to 190 °C. With `N#Cc1ccc2c(c1)OC(c1ccccc1)(c1ccccc1)O2` the figure was 106 to 107 °C; with `Cn1cnc2ccc(-c3nnc(CCc4cccc(F)c4)o3)cc21`, 145 to 146 °C. Turning to `ON=C(c1ccc(F)cc1)c1ccc2nc(N[C@@H]3CCc4ccccc43)ccc2c1`, the melting point came out at 226 °C. The molecule `CS(=O)(=O)c1ccc(-c2cnn(CC(F)(F)F)c(=O)c2OCc2ccco2)cc1` showed a melting point of 113 to 115 °C. `O=C(O)Cc1ccc2c3c(ccc2c1)OCC3` came in with a melting point of 181 to 183 °C. Regarding `Cc1nn2c(O)ccnc2c1-c1cc(-c2ccccc2)cs1`, the melting point lay within 218 to 235 °C. For `O=C(O)c1ccc2oc3c(c(=O)c2c1)CCCC3` the value was 253 to 255 °C; for `Oc1ccc2ccc(OCc3nc4ccccc4s3)cc2c1`, 205 to 207 °C; for `COCCNC(=O)c1cccc(-c2cccc3c(C)c(Cc4ccc(F)c(Cl)c4)sc23)c1`, 141 to 142 °C. In turn, `CN(C)C=C1CN=C(c2ccccc2)c2ccccc2C1=O` returned a melting point of 131 to 133 °C. The molecule `CCOC(=O)CNC(=O)c1nc2ccc(NCCCN3CCC(OC(c4ccccc4)c4ccccc4)CC3)nn2n1` came in with a melting point of 175 to 177 °C. With `CCNC(=O)c1cc(Br)sc1[Si](C)(C)C`, the melting point was in the range of 96 to 98 °C. In turn, `CC(C)(C)N1CC2(CCN(Cc3ccccc3)CC2)OC1=O` gave a melting point of 110 to 112 °C. `Cc1ccc(S(=O)(=O)N2CCNC2=Nc2ccccc2)cc1` had a melting point of 174 to 177 °C. With `C#Cc1c(C(C)C)cc(-c2ccccc2)nc1-c1ccc(F)cc1` the figure was 121 to 124 °C; with `CCCCCS(=O)(=O)NC(=O)C(C)Cc1ccc(OCCOC)cc1Oc1ncc(C(F)(F)F)cc1Cl` (stereo unspecified), 136 to 138 °C. `CCn1c(=O)c2[nH]c(/C=C/c3cccc(Cl)c3)nc2n(CC)c1=O` had a melting point above 280 °C.

As for `Cc1noc(C)c1C(=O)Nc1ccc(-n2nc(C(F)(F)F)cc2C(F)(F)F)c(C(F)(F)F)c1`, the melting point is 61 to 63 °C. With `CSc1ccc(-c2csc3ccc(C(=O)NN)cc23)cc1` the figure was 195 to 196 °C; with `COc1cc(CN2CC[C@H](O)C2)ccc1-c1nc2c(N[C@H]3[C@@H](C(N)=O)[C@@H]4C=C[C@H]3C4)c(Cl)cnc2[nH]1`, 205 to 208 °C. Take `C[C@H](NC(=O)CS)C(=O)N1CCC[C@H]1C(=O)O`: the melting point was in the range of 152 to 155 °C. The molecule `Nc1c([N+](=O)[O-])ccc(Oc2cccc(Cl)c2)c1Cl` yielded a melting point of 101 to 102 °C. For `O=C(O)C=C1CC(C(=O)OCc2ccccc2)Nc2cc(Cl)cc(Cl)c21` (racemic), the melting point is 210 to 212 °C.

`O=C(O)c1ccc(OCCCc2ccc(OCc3ccccc3)cc2)cc1` registered a melting point of 128 to 130 °C. With `Cc1nc(=O)n(COc2ccccc2)c(C)c1Br` the figure was 120 °C; with `CC(C)(C)OC(=O)N1CCN(c2cccc3c2c(Br)cn3S(=O)(=O)c2ccccc2)CC1`, 188 to 189 °C; with `COc1ccc2c(c1)CCC1CCN(C)C(=O)C(CC(C)NC(C)C)=C21` (stereo unspecified), 118 to 120 °C.

Molecule `CN1C(=O)CC[C@]2(C)c3ccc(-c4cccc(Cl)c4Cl)cc3CC[C@@H]12` came in with a melting point of 131 to 134 °C. `Cc1nc(-n2cnn(CC3CC3)c2=O)sc1C(N)=O` had a melting point of 180 to 181 °C. For the molecule `COC(=O)C=Cc1cccc2[nH]ccc12`, the melting point is 113 to 115 °C. With `CCOCCCN(C)Cc1ccc(NC(=O)C2=Cc3cc(-c4ccc(OCC)cc4)ccc3S(=O)(=O)CC2)cc1` the figure was 197 to 198 °C. Consider `CC(C)(C)NC(=O)C(Cc1ccc(OCc2ccccc2)cc1)NC(=O)c1ccc(C(C)(C)C)cc1` (stereo unspecified), for which the melting point was 124 to 131 °C. In turn, `CCOC(=O)C1=C(C)NC(COC(C)=O)=C(C(=O)OCC)C1c1ccccc1` (stereo unspecified) displayed a melting point of 104 to 106 °C. For `CCCCC(C(=O)Nc1c(C(C)C)cccc1C(C)C)C1c2ccccc2Oc2ccccc21` (stereo unspecified) the value was 188 to 189 °C.
